≈ marks a conversion by molar mass, not a printed value. Calls of active or inactive are those of the source. The calls are words filed in the database; no cut-off is given here.
Tests used:
[1] = biological target: T1, Bromodomain-containing protein 9 (Homo sapiens, UniProt Q9H8M2); experiment: Binding affinity to BRD9 (unknown origin) N-terminal bromodomain by TR-FRET assay
T1 sequence (Q9H8M2 whole entry): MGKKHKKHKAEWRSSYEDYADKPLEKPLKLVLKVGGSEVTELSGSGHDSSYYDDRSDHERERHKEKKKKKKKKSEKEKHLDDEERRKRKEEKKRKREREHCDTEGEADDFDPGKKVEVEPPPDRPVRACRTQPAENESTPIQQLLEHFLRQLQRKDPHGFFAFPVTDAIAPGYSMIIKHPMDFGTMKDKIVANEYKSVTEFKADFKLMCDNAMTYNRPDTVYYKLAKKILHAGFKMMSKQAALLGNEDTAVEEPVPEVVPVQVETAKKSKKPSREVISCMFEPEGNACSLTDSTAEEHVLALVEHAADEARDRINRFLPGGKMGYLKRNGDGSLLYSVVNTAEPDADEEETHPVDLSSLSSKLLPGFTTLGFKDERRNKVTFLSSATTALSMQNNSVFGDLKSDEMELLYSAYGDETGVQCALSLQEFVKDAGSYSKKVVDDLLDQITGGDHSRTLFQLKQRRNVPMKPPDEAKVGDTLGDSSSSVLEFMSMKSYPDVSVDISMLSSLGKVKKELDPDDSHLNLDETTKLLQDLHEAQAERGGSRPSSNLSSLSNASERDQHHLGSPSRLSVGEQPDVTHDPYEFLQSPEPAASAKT

[2] = biological target: T2, Bromodomain-containing protein 4 (Homo sapiens, UniProt O60885); experiment: Binding affinity to BRD4 (1) (unknown origin) N-terminal bromodomain by TR-FRET assay
[3] = Chromatographic hydrophobicity index, logD of the compound at pH 7.4 by HPLC analysis; type: physicochemical; conditions: buffer
[4] = biological target: T3, Bromodomain-containing protein 7 (Homo sapiens, UniProt Q9NPI1); experiment: Binding affinity to human partial length BRD7 (L125 to R254 residues) expressed in mammalian expression system by BROMOscan assay
T3 sequence (Q9NPI1 whole entry): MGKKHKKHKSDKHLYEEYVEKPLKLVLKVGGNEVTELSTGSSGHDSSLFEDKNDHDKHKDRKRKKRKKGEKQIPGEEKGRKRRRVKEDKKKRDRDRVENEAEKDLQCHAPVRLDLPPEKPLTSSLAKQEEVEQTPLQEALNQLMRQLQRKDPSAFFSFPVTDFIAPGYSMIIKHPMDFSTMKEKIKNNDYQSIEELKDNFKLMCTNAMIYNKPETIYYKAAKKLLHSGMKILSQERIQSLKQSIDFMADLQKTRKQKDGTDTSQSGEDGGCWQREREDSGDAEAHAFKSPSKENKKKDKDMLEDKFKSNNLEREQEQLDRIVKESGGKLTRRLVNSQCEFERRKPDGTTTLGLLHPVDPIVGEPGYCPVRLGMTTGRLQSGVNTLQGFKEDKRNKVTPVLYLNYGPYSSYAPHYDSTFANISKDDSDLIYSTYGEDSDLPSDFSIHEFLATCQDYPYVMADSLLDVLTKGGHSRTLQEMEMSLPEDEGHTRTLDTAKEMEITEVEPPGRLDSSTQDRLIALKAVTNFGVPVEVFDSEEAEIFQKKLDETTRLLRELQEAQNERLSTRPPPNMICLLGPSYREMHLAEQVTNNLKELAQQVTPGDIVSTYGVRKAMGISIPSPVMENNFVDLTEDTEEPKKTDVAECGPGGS

[5] = biological target: T4, Peregrin (Homo sapiens, UniProt P55201); experiment: Binding affinity to human partial length BRPF1 (E627 to G740 residues) expressed in bacterial expression system by BROMOscan assay
T4 sequence (P55201 whole entry): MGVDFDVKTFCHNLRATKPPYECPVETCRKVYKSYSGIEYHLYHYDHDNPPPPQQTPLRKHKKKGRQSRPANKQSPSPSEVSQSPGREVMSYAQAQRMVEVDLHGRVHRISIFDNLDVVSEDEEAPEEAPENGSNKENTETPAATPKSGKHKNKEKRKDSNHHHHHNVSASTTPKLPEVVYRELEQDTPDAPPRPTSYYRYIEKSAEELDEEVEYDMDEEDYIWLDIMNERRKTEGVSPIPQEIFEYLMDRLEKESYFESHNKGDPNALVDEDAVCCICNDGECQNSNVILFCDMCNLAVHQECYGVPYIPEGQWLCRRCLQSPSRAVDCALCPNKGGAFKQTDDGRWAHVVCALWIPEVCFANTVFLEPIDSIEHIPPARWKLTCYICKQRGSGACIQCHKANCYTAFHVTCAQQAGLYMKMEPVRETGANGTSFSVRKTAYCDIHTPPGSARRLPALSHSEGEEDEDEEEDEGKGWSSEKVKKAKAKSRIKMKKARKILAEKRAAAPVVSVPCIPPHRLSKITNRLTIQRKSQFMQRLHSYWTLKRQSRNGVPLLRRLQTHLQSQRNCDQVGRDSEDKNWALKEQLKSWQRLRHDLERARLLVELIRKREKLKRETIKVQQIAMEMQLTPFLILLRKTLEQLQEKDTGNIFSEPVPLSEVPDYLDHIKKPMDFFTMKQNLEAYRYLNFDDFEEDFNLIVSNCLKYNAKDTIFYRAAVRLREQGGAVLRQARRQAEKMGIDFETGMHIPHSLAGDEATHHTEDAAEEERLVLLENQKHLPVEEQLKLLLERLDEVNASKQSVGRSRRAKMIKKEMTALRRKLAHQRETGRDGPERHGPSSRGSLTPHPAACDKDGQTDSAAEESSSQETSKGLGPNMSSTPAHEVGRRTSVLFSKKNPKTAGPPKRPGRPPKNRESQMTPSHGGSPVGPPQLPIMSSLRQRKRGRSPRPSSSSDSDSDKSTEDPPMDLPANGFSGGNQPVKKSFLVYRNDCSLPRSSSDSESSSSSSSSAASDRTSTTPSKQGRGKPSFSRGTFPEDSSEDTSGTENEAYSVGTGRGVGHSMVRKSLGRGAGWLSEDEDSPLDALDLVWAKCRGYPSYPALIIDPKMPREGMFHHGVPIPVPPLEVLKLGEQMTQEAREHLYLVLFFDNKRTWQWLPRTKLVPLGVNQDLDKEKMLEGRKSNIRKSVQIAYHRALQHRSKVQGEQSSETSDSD

[6] = Solubility of compound by CLND method; type: physicochemical
[7] = Permeability by PAMPA; type: ADME; conditions: read-out: permeability
[8] = biological target: T2, Bromodomain-containing protein 4; experiment: Binding affinity to human partial length BRD4 (1) (N44 to E168 residues) expressed in bacterial expression system by BROMOscan assay
[9] = biological target: T5, Bromodomain-containing protein 7 (Homo sapiens) (UniProt Q9NPI1); experiment: Binding affinity to BRD7 in human HuT78 cells nuclear and chromatin extracts at 10 uM incubated for 45 mins by mass spectrometry based chemoproteomic binding assay; type: cell-based
T5 sequence (whole entry): T3 sequence (Q9NPI1 whole entry)

[10] = biological target: B-cell CLL/lymphoma 7 protein family member A (Homo sapiens) (UniProt Q4VC05); experiment: Binding affinity to BCL7A in human HuT78 cells nuclear and chromatin extracts at 10 uM incubated for 45 mins by mass spectrometry based chemoproteomic binding assay; type: cell-based
[11] = biological target: B-cell CLL/lymphoma 7 protein family member B (Homo sapiens) (UniProt Q9BQE9); experiment: Binding affinity to BCL7B in human HuT78 cells nuclear and chromatin extracts at 10 uM incubated for 45 mins by mass spectrometry based chemoproteomic binding assay; type: cell-based
[12] = biological target: Protein polybromo-1 (Homo sapiens) (UniProt Q86U86); experiment: Binding affinity to PBRM1 in human HuT78 cells nuclear and chromatin extracts at 10 uM incubated for 45 mins by mass spectrometry based chemoproteomic binding assay; type: cell-based
[13] = biological target: SWI/SNF-related matrix-associated actin-dependent regulator of chromatin subfamily A member 2 (Homo sapiens) (UniProt P51531); experiment: Binding affinity to SMARCA2 in human HuT78 cells nuclear and chromatin extracts at 10 uM incubated for 45 mins by mass spectrometry based chemoproteomic binding assay; type: cell-based
[14] = biological target: SWI/SNF-related matrix-associated actin-dependent regulator of chromatin subfamily A member 4 (Homo sapiens) (UniProt P51532); experiment: Binding affinity to SMARCA4 in human HuT78 cells nuclear and chromatin extracts at 10 uM incubated for 45 mins by mass spectrometry based chemoproteomic binding assay; type: cell-based
[15] = biological target: T1, Bromodomain-containing protein 9
Description: Binding affinity to human partial length BRD9 (R130 to V259 residues) expressed in bacterial expression system by BROMOscan assay

[16] = organism: Homo sapiens; experiment: Selectivity index, ratio of IC50 for binding affinity to BRD4 (1) (unknown origin) N-terminal bromodomain to IC50 for binding affinity to BRD9 (unknown origin) N-terminal bromodomain
[17] = Drug distribution in human HeLa cells assessed as intracellular influx/efflux ratio by mass spectrometry; type: ADME, cell-based
[18] = biological target: T3, Bromodomain-containing protein 7; experiment: Binding affinity to BRD7 (unknown origin)
[19] = organism: Homo sapiens; experiment: Selectivity index, ratio of IC50 for binding affinity to PCAF (unknown origin) N-terminal bromodomain to IC50 for binding affinity to BRD9 (unknown origin) N-terminal bromodomain
[20] = biological target: T1, Bromodomain-containing protein 9; remark: listed apart in the source

Sequence of SWI/SNF-related matrix-associated actin-dependent regulator of chromatin subfamily A member 4 (Homo sapiens) (P51532 whole entry): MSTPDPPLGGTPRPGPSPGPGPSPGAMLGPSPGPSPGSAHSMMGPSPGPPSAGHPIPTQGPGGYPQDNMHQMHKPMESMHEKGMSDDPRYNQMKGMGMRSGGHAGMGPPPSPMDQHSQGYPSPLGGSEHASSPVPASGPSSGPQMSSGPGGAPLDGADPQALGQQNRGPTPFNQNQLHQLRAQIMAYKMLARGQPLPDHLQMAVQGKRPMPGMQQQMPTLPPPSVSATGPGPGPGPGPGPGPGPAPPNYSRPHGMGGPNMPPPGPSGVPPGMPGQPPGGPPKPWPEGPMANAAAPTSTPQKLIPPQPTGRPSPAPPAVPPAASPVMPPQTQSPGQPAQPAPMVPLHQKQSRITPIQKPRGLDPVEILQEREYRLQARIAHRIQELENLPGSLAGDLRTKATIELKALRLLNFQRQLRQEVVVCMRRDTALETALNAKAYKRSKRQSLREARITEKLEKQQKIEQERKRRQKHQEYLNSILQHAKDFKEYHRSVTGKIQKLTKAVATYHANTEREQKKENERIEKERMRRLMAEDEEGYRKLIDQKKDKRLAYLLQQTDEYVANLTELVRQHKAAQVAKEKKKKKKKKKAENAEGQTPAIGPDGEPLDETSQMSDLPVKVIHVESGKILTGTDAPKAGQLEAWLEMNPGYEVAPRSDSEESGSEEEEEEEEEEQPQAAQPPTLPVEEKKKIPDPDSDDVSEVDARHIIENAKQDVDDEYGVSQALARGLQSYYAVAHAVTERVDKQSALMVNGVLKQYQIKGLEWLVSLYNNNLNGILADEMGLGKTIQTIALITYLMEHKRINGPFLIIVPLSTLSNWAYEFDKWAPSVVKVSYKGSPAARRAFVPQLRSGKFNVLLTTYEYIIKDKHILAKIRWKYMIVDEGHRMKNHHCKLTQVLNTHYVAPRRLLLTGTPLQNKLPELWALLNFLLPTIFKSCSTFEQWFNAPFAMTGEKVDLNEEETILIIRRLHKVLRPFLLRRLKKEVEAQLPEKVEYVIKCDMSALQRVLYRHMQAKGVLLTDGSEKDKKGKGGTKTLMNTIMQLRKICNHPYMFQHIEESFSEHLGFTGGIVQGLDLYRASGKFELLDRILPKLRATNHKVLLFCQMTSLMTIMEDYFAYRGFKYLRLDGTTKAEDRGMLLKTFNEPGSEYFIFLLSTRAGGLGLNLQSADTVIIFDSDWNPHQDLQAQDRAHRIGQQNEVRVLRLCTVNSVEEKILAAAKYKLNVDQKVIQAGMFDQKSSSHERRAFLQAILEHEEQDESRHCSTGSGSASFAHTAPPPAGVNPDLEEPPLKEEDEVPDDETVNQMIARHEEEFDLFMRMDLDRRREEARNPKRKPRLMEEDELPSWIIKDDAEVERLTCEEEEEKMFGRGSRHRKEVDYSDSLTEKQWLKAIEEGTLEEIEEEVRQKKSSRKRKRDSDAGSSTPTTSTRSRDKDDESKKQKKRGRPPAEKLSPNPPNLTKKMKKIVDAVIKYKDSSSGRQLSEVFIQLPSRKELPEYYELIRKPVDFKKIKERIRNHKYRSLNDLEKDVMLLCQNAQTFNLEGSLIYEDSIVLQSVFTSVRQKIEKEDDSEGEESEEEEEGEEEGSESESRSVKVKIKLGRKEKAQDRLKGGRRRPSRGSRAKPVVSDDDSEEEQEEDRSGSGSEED
Sequence of Protein polybromo-1 (Homo sapiens) (Q86U86 whole entry): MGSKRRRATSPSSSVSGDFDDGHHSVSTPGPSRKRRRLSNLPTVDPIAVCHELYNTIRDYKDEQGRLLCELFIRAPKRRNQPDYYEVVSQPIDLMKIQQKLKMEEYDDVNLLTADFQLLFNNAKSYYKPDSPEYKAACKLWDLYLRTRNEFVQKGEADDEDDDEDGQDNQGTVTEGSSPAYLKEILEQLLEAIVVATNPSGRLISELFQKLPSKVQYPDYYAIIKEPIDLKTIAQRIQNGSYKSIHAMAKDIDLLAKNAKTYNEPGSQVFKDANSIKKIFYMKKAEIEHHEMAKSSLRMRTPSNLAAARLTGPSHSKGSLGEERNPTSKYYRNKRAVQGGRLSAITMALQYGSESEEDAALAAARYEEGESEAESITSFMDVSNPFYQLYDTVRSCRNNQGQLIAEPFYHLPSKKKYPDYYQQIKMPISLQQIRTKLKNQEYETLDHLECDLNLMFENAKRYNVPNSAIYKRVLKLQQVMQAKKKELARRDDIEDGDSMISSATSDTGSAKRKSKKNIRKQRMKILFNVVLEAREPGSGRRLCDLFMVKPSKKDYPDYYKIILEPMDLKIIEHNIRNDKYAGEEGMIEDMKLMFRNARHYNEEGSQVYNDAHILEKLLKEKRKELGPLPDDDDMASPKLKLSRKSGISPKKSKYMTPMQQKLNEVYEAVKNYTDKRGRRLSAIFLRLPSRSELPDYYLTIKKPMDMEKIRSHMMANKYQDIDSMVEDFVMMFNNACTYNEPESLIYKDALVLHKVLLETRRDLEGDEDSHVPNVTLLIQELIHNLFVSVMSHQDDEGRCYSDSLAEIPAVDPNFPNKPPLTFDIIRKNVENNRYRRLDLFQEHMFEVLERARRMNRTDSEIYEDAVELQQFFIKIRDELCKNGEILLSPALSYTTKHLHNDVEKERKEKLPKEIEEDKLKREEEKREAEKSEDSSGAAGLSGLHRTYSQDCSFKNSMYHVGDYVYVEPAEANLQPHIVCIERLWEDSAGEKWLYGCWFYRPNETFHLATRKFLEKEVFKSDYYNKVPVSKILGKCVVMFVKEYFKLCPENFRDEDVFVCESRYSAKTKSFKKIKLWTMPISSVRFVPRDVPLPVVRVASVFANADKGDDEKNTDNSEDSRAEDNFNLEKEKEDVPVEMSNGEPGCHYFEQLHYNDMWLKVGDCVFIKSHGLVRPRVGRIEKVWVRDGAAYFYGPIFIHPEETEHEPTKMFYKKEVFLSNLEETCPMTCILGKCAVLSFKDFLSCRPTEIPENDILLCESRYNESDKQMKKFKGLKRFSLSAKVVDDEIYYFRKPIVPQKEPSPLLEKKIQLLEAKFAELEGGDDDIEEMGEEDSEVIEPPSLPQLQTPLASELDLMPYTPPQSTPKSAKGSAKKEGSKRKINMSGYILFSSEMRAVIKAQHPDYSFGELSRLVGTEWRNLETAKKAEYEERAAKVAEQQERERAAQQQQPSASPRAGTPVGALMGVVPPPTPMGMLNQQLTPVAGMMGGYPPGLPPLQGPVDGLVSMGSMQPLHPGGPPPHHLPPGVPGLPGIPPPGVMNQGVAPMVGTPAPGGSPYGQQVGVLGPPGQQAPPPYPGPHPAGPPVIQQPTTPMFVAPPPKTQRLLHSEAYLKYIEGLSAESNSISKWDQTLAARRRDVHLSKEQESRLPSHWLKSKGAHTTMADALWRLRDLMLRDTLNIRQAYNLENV
Sequence of SWI/SNF-related matrix-associated actin-dependent regulator of chromatin subfamily A member 2 (Homo sapiens) (P51531 whole entry): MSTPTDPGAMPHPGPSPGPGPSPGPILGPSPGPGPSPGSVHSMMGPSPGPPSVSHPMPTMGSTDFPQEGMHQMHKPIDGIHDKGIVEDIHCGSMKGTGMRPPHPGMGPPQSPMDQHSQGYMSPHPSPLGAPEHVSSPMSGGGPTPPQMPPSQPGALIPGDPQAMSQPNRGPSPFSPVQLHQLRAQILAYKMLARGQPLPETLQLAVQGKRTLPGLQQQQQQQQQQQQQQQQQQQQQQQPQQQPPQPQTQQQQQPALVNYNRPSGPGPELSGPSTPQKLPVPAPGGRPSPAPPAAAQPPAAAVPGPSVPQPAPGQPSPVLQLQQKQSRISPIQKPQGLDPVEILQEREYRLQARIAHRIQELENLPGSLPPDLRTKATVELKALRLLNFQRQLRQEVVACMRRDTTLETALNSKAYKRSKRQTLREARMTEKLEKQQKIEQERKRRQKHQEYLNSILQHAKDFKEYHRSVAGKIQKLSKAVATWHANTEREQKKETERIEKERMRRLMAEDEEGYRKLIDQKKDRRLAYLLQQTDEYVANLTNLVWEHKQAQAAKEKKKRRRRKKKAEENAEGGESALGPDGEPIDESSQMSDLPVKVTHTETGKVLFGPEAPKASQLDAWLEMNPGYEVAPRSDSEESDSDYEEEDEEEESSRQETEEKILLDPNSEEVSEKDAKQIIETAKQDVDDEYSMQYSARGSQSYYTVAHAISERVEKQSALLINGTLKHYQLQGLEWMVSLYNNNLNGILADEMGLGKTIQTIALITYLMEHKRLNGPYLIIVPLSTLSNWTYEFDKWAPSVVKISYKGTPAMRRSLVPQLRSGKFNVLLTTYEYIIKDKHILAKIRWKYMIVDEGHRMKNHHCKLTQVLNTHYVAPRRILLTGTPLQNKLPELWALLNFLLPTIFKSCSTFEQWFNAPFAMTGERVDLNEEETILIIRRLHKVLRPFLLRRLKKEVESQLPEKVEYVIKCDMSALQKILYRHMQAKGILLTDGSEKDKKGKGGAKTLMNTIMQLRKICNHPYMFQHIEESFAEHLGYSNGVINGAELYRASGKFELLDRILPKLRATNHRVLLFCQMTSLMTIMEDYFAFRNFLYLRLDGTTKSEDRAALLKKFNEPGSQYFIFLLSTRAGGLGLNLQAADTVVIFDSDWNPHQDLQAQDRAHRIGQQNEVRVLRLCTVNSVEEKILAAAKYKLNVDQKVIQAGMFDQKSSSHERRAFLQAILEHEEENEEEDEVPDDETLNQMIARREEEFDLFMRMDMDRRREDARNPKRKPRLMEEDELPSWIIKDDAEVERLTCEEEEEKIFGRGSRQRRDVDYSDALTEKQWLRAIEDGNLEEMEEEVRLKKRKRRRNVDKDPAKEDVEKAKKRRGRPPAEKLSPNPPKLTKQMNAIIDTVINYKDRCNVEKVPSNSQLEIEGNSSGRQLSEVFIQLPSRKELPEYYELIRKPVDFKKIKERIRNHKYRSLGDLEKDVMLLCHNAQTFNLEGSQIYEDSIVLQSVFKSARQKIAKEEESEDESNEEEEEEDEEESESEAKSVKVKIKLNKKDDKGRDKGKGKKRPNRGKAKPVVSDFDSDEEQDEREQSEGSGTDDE
Sequence of B-cell CLL/lymphoma 7 protein family member B (Homo sapiens) (Q9BQE9 whole entry): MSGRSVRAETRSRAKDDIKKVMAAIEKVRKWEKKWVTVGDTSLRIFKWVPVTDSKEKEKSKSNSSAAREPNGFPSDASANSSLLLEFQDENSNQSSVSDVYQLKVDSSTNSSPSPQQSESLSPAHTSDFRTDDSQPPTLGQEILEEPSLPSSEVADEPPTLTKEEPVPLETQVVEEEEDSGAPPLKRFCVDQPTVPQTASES

SMILES	IC50 [1] [nM]	IC50 [2] [nM]	chromatographic logD [3]	Ki [4] [nM]	Ki [5] [nM]	solubility kinetic [6] [µg/mL]	Papp [7] [×10⁻⁶ cm/s]	Ki [8] [nM]	Ki [15] [nM]	fold selectivity [16]	also measured
Cc1c(NCc2ccccc2N2CCN(C)CC2)cnn(C)c1=O	200	> 50100	1.6	25.1	251	178 (≈ 544 µM)	33	25100	39.8	> 250	Activity [9]: Active; Activity [10]: Active; Activity [11]: Active; Activity [12]: Active; Activity [13]: Active; Activity [14]: Active
CCCCc1c(NCc2ccccc2N2CCN(C)CC2)cnn(C)c1=O	–	–	3.5	501	> 31600	≥ 228	25	> 31600	63.1	–	Ratio [17]: 0.52
COc1cc(-c2cn(C)c(=O)c3cnccc23)c(OC)cc1CN(C)CC(=O)NCCOCCOCCNc1cccc2c1C(=O)N(C1CCC(=O)NC1=O)C2=O (configuration not stated)	–	–	–	–	–	–	–	–	–	–	IC50 [18]: 100 nM
Cn1ncc(NCc2ccccc2)c(Cl)c1=O	2000	20000	3.2	–	–	–	–	–	–	10	fold selectivity [19]: 6
C/C=C/Cn1cc(-c2cc(OC)c(C(=O)N3CCOCC3)cc2OC)c2cc[nH]c2c1=O	–	–	–	–	–	–	–	–	–	–	Kd [18]: 100 nM; Kd [20]: 2 nM

Reference: ChEMBL document CHEMBL4613271, “Application of Atypical Acetyl-lysine Methyl Mimetics in the Development of Selective Inhibitors of the Bromodomain-Containing Protein 7 (BRD7)/Bromodomain-Containing Protein 9 (BRD9) Bromodomains” (J Med Chem, 2020)
